Laboratory results taken from patent EP0292365A2, “4-Amino-5,8-quinazolindione derivatives, process for their preparation and pharmaceutical compositions containing them” (CENTRE NATIONAL DE LA RECHERCHE SCIENTIFIQUE, priority 1987, dated 1988).
Like-named read-outs stand apart in the source and are kept apart here.

How the values were obtained:
Mélanome B16 = assay type: in vivo, souris BDF1
Text: (§1) Afin de tester l'activité antitumorale des composés décrits plus haut, on a utilisé les leucémies murines P388 et L1210, ainsi que le mélanome murin B16. La leucémie P388 est considère comme très sensible et permet une première sélection. D'autre part, une substance ayant une grande activité sur la leucémie L1210 a une grande chance d'être active en clinique humaine (J.M. Venditti; Relevance of transplantable animal tumor systems to the Selection of new agents for clinical trial in pharmacological basis of cancer chemotherapy. The University of Texas ed. Williams and Wilkins, publ. 1975, Baltimore USA).
(§2) Cette étude a été réalisée sur 1, 2 ou 3 tumeurs murines expérimentales selon le schéma suivant :
(§3) Les produits en solution dans l'eau ou en suspension dans du Klucel sont administrés par voie intrapéritonéale 24 heures après la greffe des cellules tumorales (10 animaux par série), soit en injection unique (J1), soit pendant 9 jours consécutifs (Ji-9). Les morts sont relevés chaque jour à la même heure. La comparaison du temps médian de survie des souris témoins (C) et des souris traitées (T) permet d'apprécier l'activité antitumorale du produit. On adopte comme critère d'activité minimale la valeur de T/C supérieure ou égale à 125 % conformément aux critères établis par GERAN et par l'O.M.S. (Réf. GERAN R.I., GREENBERG N.H., MACDONALD M.M., SCHUMACHER A.M. and ABBOTT B.J. Protocols for screening chemical agents and natural products against animal tumors and other biological systems. Cancer Chemother. Rep. Part 3, 3, 1-103 (1972)).
(§4) Lorsque le composé est actif sur plusieurs tumeurs, son administration par d'autres voies que la voie intrapéritonéale (i.p.) est envisagée : orale (p.o) et intraveineuse (i.v). Les résultats des essais effectués à l'aide du composé 63 sont rassemblés dans le tableau IV ci-après.
(§5) Dans les tableaux IV et IV Bis, P représentent la variation de poids entre J1 et J5 des animaux traités; lorsque P est supérieure à environ 4 g, cela signifie que la dose à laquelle le composé a été testé est toxique.

[1] = Determination of toxicity (DLo), single intraperitoneal dose; assay type: in vivo; details: voie intrapéritonéale, dose unique, souris Swiss, suivies pendant un mois
Text: Ils sont tous administrés, par voie intrapéritonéale (ip), à des souris Swiss de 22 ± 2 g, à doses uniques exprimées en mg/kg de poids corporel. Les animaux sont suivis pendant un mois. La mortalité et les signes de toxicité sont relevés. On détermine ainsi la DLoqui sera la dose maximale utilisée pour la détermination de l'activité antitumorale.

cellules MCF-7 = assay: Effect on cell cycle phases, MCF-7 line; assay type: cell-based, humaine; details: summary of tableau D
Method: Les cellules tumorales en croissance exponentielle sont ensemencées (10.000 cellules/ml) dans des boîtes à Petri contenant au fond de la boîte un couvre-objet (18 x 18 mm) et 3 ml de MEM (MEM = milieu essentiel minimum) + 5 % FCS (FCS = serum de veau fetal) (v/v). Après 24 heures d'incubation, quand les cellules sont bien attachées au fond de la boîte, le milieu est remplacé par MEM expérimental contenant 5 % FCS (v/v) et enrichi, par exemple de : • a) 3 ml du milieu (MEM + 5 % FCS) = témoins • b) 3 ml du milieu contenant une dose élevée du composé à tester : 10 µg/ml : (M) • c) milieu contenant une faible dose du composé à tester : 0.01 µg/ml (f) respectivement aux jours 1, 2, 3 et 4 après addition du milieu expérimental dans les boîtes de Petri. Trois couvre-objets sont fixés pour chaque condition expérimentale : éthanol 95° (75 v), formol neutre à 40 % (20 v), acide acétique (5 v), pendant 10 minutes. Les cellules témoins cultivées dans le milieu expérimental sans le produit à tester sont fixées au même moment. A la fin de la fixation, les couvre-objets sont retournés et montés sur des lames histologiques à l'aide de produit commercialisé sous la marque DPX par la Société British Drug House et conservés à l'abri de la lumière et à 4° en attendant d'être colorés.
Les lames avec les couvre-objets sont colorées par une réaction de Feulgen modifiée. […]

Leucémie L1210 = assay type: in vivo, souris DBA/2; details: for survivants 30 jours / Δ P J1-J5 / T/C / Doses actives (T/C ≥ 125 %): L1210, greffe ip(10^5cel.); for T/C: survivants inclus
Text: as §1
La leucémie L1210 de la souris est en effet couramment utilisée pour l'évaluation de tous les composés antitumoraux actuellement mis en oeuvre en thérapeutique humaine, ainsi qu'il est décrit, par exemple par C.C. Zubrod dans Proc. Nat. Acad. Sci. USA 69, 1972, p. 1042-1047. Le système tumoral ainsi constitué expérimentalement permet une évaluation quantitative très précise de l'activité du composé testé, et, par conséquent aussi, une comparaison objective entre les activités respectives de différents composés, par exemple selon les méthodes décrites par R. E. Skipper, F. M. Schabel, Jr. et W. S. Wilcox dans Cancer Chemother. Rep., 35, 1964, p. 1-111 et 45, 1965, p.5-28.
as §2, §3, §4, §5

[2] = Solubility in water (statement); assay type: physicochemical
[3] = B16, greffe ip(susp. au 1/10), ip J1-9, dose optimale 0,2 mg/kg/inj.
[4] = ip J1-9, dose optimale 0,4 mg/kg/inj.
[5] = ip J1, dose optimale 2 mg/kg/inj.

## CN(C)CCCNc1ncnc2c1C(=O)C(N1CC1)=C(N1CC1)C2=O [composé 63]
Mélanome B16; [3]
  survivants 60 jours: 2
  Δ P J1-J5: 0 g
Mélanome B16; B16, greffe ip(susp. au 1/10), ip J1-9, dose optimale 0,2 mg/kg/inj., survivants inclus
  T/C: 192%
Mélanome B16; B16, greffe ip(susp. au 1/10), traitement ip J1-9
  Doses actives (T/C ≥ 125 %): 0,05-0,8 mg/kg/inj.
Mélanome B16; summary
  activité sur le mélanome B16: très efficace
[1]
  DLo: ~3 mg/kg
Cellules MCF-7
  effet sur le cycle cellulaire (MCF-7): bloque les cellules en phase S
Leucémie L1210; [4]
  survivants 30 jours: 1
  Δ P J1-J5: -1,6 g
  T/C: 174%
Leucémie L1210; [5]
  survivants 30 jours: 1
  Δ P J1-J5: -2,8 g
  T/C: 160%
Leucémie L1210; traitement ip J1
  Doses actives (T/C ≥ 125 %): 0,25-2 mg/kg/inj.
Leucémie L1210; traitement ip J1-9
  Doses actives (T/C ≥ 125 %): 0,03-0,8 mg/kg/inj.
Leucémie L1210; summary
  activité sur la leucémie L1210: très efficace
[2]
  solubilité dans l'eau: hydrosoluble
